{"source": "paper PMC4564171", "about": "(PLoS ONE, 2015)", "key": {"[1]": {"molecular_target": "T1, MalE-VirF binding to the 5'Cy5-pvirB DNA probe (Shigella flexneri, UniProt P0A2T1)", "T1 construct": "pMALvirF was constructed by cloning the virF gene into the vector, pMAL-c2x; made in house; host or cells: Shigella flexneri BS103 (pBAD202-MALvirF); initial preparations in E. coli KS1000 (pMALvirF)", "T1 sequence (P0A2T1 whole entry, looked up)": "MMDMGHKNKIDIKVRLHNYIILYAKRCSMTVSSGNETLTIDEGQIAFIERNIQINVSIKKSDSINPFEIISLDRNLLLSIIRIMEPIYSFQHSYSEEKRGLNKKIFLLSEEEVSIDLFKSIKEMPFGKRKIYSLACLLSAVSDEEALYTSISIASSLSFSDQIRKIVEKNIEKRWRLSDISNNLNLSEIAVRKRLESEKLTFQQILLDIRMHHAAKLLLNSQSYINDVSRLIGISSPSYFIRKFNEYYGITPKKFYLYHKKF", "experiment": "Electrophoretic mobility shift assay (EMSA) of MalE-VirF binding to pvirB DNA probe", "settings": "compound 100 μM; MalE-VirF 1 μM; probe 0.25 μM", "method": "Reactions for the EMSAs were incubated in a 37°C water bath for 15 minutes. Reactions (15 μL total volume) were composed of 6 μL pvirB EMSA DNA probe (0.25 μM), 6 μL of either MalE-VirF (1.0 μM) or native gel loading buffer (Tris-HCl 0.3 M, 50% glycerol, 0.05% bromophenol blue, pH 7.0), 1 μL of salmon sperm DNA (0.7 mg/mL, Invitrogen), 0.5 μL BSA (0.07 mg/mL), and 1.5 μL of either DMSO or compound (100 μM). A 6% native polyacrylamide gel (29:1 acrylamide to bis-acrylamide ratio) was made with 0.25X TBE buffer (22 mM Tris Base, 22 mM boric acid, 0.5 mM EDTA, pH 9.5) for the EMSA. The gel was electrophoresed for 1 hour at 150 V in 0.25X TBE buffer at 4°C before samples were loaded. After the reaction solutions (12 μL) were loaded onto the gel, the gel was electrophoresed for an additional hour at 150 V and 4°C. The gel was then visualized using FluorChem M gel imager (Protein Simple, Santa Clara, CA) with a 607 nm excitation wavelength and a 710 nm emission filter."}, "[2]": {"molecular_target": "T2, MalE-VirF binding to the pvirB DNA probe (Shigella flexneri, UniProt P0A2T1)", "T2 construct": "pMALvirF was constructed by cloning the virF gene into the vector, pMAL-c2x; made in house; host or cells: Shigella flexneri BS103 (pBAD202-MALvirF); initial preparations in E. coli KS1000 (pMALvirF)", "T2 sequence (P0A2T1 whole entry, looked up)": "as above", "experiment": "Fluorescence polarization (FP) assay, inhibition of MalE-VirF binding to the pvirB DNA probe", "method": "The FP assays were conducted in duplicate in black, half-area, 96-well plates (Corning, Twerksbury, MA). First, 30 μL of 5’-Fluoroscein-pvirB DNA probe working standard was added to appropriate wells of the microplate. The pvirB DNA working standard was in TE/NaCl buffer (see above) supplemented with BSA (0.07 mg/mL) and salmon sperm DNA (0.7 mg/mL). Next, 30 μL of varying concentrations of MalE-VirF in amylose resin elution buffer (see above) was added to appropriate wells of the microplate. The final concentration of pvirB DNA was either 50 nM (for test wells) or none (for blank wells) and the final concentrations of MalE-VirF ranged from 45 μM to 0.12 μM (for test wells) or none (for control wells). For each concentration of MalE-VirF tested, a blank well was also set up that included all reagents except pvirB DNA. The microplate was then incubated for 20 minutes at 37°C and anisotropy was determined using a SpectraMax M5 plate reader (Molecular Devices, Sunnyvale, CA). Data was acquired using an excitation wavelength equal to 490 nm and an emission wavelength equal to 520 nm. To determine anisotropy the following equation was used: Anisotropy=F∥-G^*F⊥/F∥+2^*G^*F⊥^*1000 where: Fǁ = fluorescence intensity parallel to excitation source after blanking, F┴ = fluorescence intensity perpendicular to excitation source after blanking, and G = G-factor (correction for polarization bias of the detection system). After anisotropy was determined, data were plotted using GraphPad Prism (La Jolla, Ca) and fit to the following equation: […] where Y = specific binding, KD = dissociation constant, BMAX = maximum binding, X = MalE-VirF concentration, and b = y-intercept.\nThe FP protocol listed above was adapted to determine the IC50 of the small molecule hit compounds. Compounds (ranging from 200 μM to 3.1 μM) or DMSO for controls (1% final concentration) were added to the pvirB DNA probe working standard prior to addition to the microplates. For IC50 determination, the MalE-VirF and pvirB DNA probe concentrations were held constant at 20 μM and 50 nM, respectively. Positive controls were established to determine 100% VirF inhibition (no MalE-VirF present, 50 nM pvirB DNA probe) and negative controls were set up to determine no VirF inhibition (1% DMSO, 20 μM MalE-VirF, and 50 nM pvirB DNA probe). Once again blanks were set up to include all reagents, except pvirB DNA probe. All reactions were run in duplicate. Anisotropy was calculated as listed above and data were plotted using GraphPad Prism then fit to the following equation: Y=Bottom+(Top-Bottom)/(1+10^(X-logIC50)) where: Y = anisotropy, X = log of compound concentration (M), Top and Bottom = plateaus in anisotropy units, and LogIC50 = log of the concentration that inhibits 50% of VirF binding. In the presence of the compounds (no VirF), a small increase (~6%) in the DNA anisotropy was observed.\nThe FP protocol used for IC50 determination was adapted to test a library of small molecule inhibitors of VirF. All steps were identical to the above protocol except compounds were tested at only 100 μM final concentration and positive control samples included 100 μM of compound. Once again blanks were set up to include all reagents, except pvirB DNA probe, and all reactions were run in duplicate. Anisotropy was calculated as listed above, and %inhibition was calculated as follows: %inhibition=rneg-rtest/rneg^*100 where: rneg = average anisotropy for negative controls and rtest = average anisotropy in presence of compound. Note: All rneg and rtest values were normalized to positive control values."}, "[3]": {"tested_on": "spread of an active S. flexneri infection", "settings": "cited from earlier work"}, "[4]": {"tested_on": "S. flexneri", "design": "method as in PMID 24549153", "settings": "at the tested concentrations; cited from earlier work"}}, "note": "“Also recorded” adds a separate entry of the source. Where two headings read alike, the source gives them in different places.", "data": [{"molecule": "CN(C)CCOc1nc(-c2ccccc2)nc2c1oc1ccccc12", "note": "[compound 19615]", "values": [{"measurement": "Effect on MalE-VirF binding to the pvirB DNA probe (EMSA)", "setting": "[1]", "value": "appeared to inhibit MalE-VirF binding; also recorded: dramatically reduced binding"}, {"measurement": "IC50", "setting": "[2]", "value": "46 ± 2.2", "unit": "µM"}, {"measurement": "Ki", "setting": "[2]", "value": 5.6, "unit": "µM"}, {"measurement": "inhibition at 100 µM", "setting": "[2]; read-out: % Inhibition at 100 μM", "value": 63, "unit": "%"}, {"measurement": "Inhibition of the spread of an active S. flexneri infection", "setting": "[3]; at 6.25 μM", "value": 75, "unit": "%"}, {"measurement": "Inhibition of the spread of an active S. flexneri infection", "setting": "[3]; at concentrations at or below their IC50s in the reporter assay", "value": "approximately 75%"}, {"measurement": "Plaque Efficiency Assay IC75", "setting": "[3]; ref Emanuele et al. J. Antibiotics 67:379–386 (2014)", "value": 6.25, "unit": "µM"}, {"measurement": "Toxicity to S. flexneri", "setting": "[4]", "value": "not toxic"}]}]}
